Values of other authors, collected in patent US9006292B2, “Metadichol® liquid and gel nanoparticle formulations” (NanoRx, Inc., priority 2013, dated 2015).
Like-named read-outs stand apart in the source and are kept apart here.

Experiments:
[1] = topical, phase I trial of 14 patients
RDW = settings: 6 months
Lp(a) = settings: in vivo

C=C1/C(=C\C=C2/CCC[C@]3(C)[C@@H]([C@H](C)CCCC(C)(C)O)CC[C@@H]23)C[C@@H](O)C[C@@H]1O [1,25-dihydroxycholecalciferol]
growth of P. falciparum in culture (P. falciparum; low doses): inhibitory
prevention of chemotherapy-induced alopecia [1]: failed to show efficacy

C=C1/C(=C\C=C2/CCC[C@]3(C)[C@@H]([C@H](C)CCCC(C)C)CC[C@@H]23)C[C@@H](O)C[C@@H]1O [1-hydroxy Vitamin D-3]
growth of P. falciparum in culture (P. falciparum; low doses): inhibitory

C=C1CC[C@H](O)C/C1=C/C=C1\CCC[C@]2(C)[C@@H]([C@H](C)CCCC(C)(C)O)CC[C@@H]12 [25-hydroxy vitamin D3]
growth of P. falciparum in culture (P. falciparum; low doses): inhibitory

COCCc1ccc(OCC(O)CNC(C)C)cc1 (stereo not drawn) [Metoprolol]
RDW (RDW; 100 mg/day, n=35, from 15.6): 15.45

OC(CNCC(O)C1CCc2cc(F)ccc2O1)C1CCc2cc(F)ccc2O1 (stereo not drawn) [Nebivolol]
RDW (RDW; 5 mg/d, n=37, from 15.8): 15

C=C1CC[C@H](O)C/C1=C/C=C1\CCC[C@]2(C)[C@@H]([C@H](C)/C=C/[C@H](C)C(C)C)CC[C@@H]12 [vitamin D-2]
growth of P. falciparum in culture (P. falciparum; higher levels): inhibitory

C=C1CC[C@H](O)C/C1=C/C=C1\CCC[C@]2(C)[C@@H]([C@H](C)CCCC(C)C)CC[C@@H]12 [vitamin D-3]
growth of P. falciparum in culture (P. falciparum; higher levels): inhibitory

Human growth hormone: Human growth hormone, cited as raising Lp(a)
increase of Lp(a) (Lp(a)): up to 120%
